# Values quoted from earlier work as cited in article PMC6376154 (International Journal for Parasitology: Drugs and Drug …, 2019).
# Where two headings read alike, the source gives them in different places.
# Test system: P. falciparum 3D7 asexual blood stage
# Conditions: cited from earlier work
# [1] = MMV Malaria Box data sheet (supplement mmc2.xls), ref MMV data sheet
# [2] = value(s) per source (GSK, GNF, StJude), separated by semicolon, ref ChEMBL-NTD, read-out: CHEMBL EC50
# [3] = MMV Malaria Box data sheet (supplement mmc2.xls), ref MMV data sheet, read-out: EC50_nM
# [4] = ChEMBL-NTD value per source (GNF, GSK, StJude), several values in a cell follow the order of the sources, read-out: CHEMBL EC50
# [5] = MMV Malaria Box sheet, ref MMV data sheets
# [6] = source GSK, ref ChEMBL_NTD, read-out: CHEMBL EC50
# [7] = source StJude, ref ChEMBL_NTD, read-out: CHEMBL EC50
# [8] = MMV Malaria Box data sheet, ref MMV data sheets
# [9] = MMV Malaria Box data sheet, ref MMV data sheets, read-out: EC50_nM
# [10] = source GNF, ref ChEMBL_NTD, read-out: CHEMBL EC50
# [11] = MMV Malaria Box sheet, ref MMV data sheets, read-out: EC50_nM
smiles,measurement,setting,value
O=C(Nc1ccccc1O)c1ccc(Oc2cccc(C(=O)Nc3ccccc3O)c2)cc1 [MMV665888],percent_inh @ 5 uM,[1],91%
same,EC50,[2],799 nM
COc1ccc(-c2nonc2NC(=O)c2cccc(C)c2)cc1OC [MMV665890],percent_inh @ 5 uM,[1],95%
same,EC50,[2],806 nM
c1ccc(-c2ccc(-c3nc4ccccc4[nH]3)cc2)cc1 [MMV665891],percent_inh @ 5 uM,[1],52%
same,EC50,[3],1070 nM
same,EC50,[2],809 nM
CC(=O)c1sc(NC(=O)Nc2ccc(C)cc2C)nc1C [MMV665894],EC50,[4],906 nM
COc1ccc2nc(N)nc(C)c2c1 [MMV665897],percent_inh @ 5 uM,[5],63%
same,EC50,[6],927 nM
COc1cc(C(=O)Nc2ccc(-c3nc4ccccc4[nH]3)cc2)cc(OC)c1OC [MMV665898],EC50,[4],982 nM
O=C(c1ccccc1F)N(Cc1ccc(Cl)cc1)c1ccccn1 [MMV665899],percent_inh @ 5 uM,[1],59%
same,EC50,[2],1020 nM
O=C(Nc1ccc(CN2CCOCC2)cc1)c1ccc(-c2ccc(Br)cc2)o1 [MMV665901],percent_inh @ 5 uM,[1],96%
same,EC50,[3],1360 nM
same,EC50,[2],1120 nM
N=c1n(CCN2CCCCC2)c2ccccc2n1CC(O)c1cccc(Br)c1 (stereo not drawn) [MMV665902],percent_inh @ 5 uM,[1],98%
same,EC50,[3],893 nM
same,EC50,[2],1140 nM
COCCn1c(C)nc2ccccc2c1=O [MMV665904],percent_inh @ 5 uM,[5],59%
same,EC50,[6],1460 nM
Cc1ccc(-c2cc(C(=O)Nc3ccc(S(=O)(=O)N4CCCCC4)cc3)[nH]n2)c(O)c1 [MMV665906],percent_inh @ 5 uM,[1],94%
same,EC50,[3],535 nM
same,EC50,[2],1770 nM
COc1ccc(N2CCN(C(CNC(=O)CC(C)(C)C)c3ccc4c(c3)OCO4)CC2)cc1 (stereo not drawn) [MMV665908],percent_inh @ 5 uM,[5],95%
same,EC50,[7],4280 nM
O=C(Nc1nc(-c2ccccn2)cs1)c1ccccc1Br [MMV665909],percent_inh @ 5 uM,[8],97%
same,EC50,[9],1360 nM
same,EC50,[7],4530 nM
CCOc1ccc(-c2nc(NC(=O)c3cccc(S(C)(=O)=O)c3)sc2C)cc1 [MMV665913],percent_inh @ 5 uM,[1],95%
same,EC50,[2],15000 nM
COc1ccccc1N1CCN(C(CNS(=O)(=O)c2ccc(Cl)cc2)c2cccnc2)CC1 (stereo not drawn) [MMV665914],percent_inh @ 5 uM,[1],93%
same,EC50,[2],15000 nM
COc1ccc(-c2nc(NC(=O)CS(=O)(=O)c3ccc(F)cc3)sc2C)cc1 [MMV665915],percent_inh @ 5 uM,[8],97%
same,EC50,[9],448 nM
same,EC50,[10],212 nM
same,EC50,[6],243 nM
COc1ccccc1CNC(=O)CCn1c(=O)[nH]c2ccccc2c1=O [MMV665916],percent_inh @ 5 uM,[8],64%
same,EC50,[9],72.6 nM
same,EC50,[10],537 nM
O=C(Nc1ccc(Cl)cc1)N1CCN(c2ccc3nncn3n2)CC1 [MMV665917],percent_inh @ 5 uM,[8],62%
same,EC50,[10],2060 nM
O=C(CSc1ccc2nnc(-c3cccc(F)c3)n2n1)Nc1ccc2c(c1)OCO2 [MMV665918],percent_inh @ 5 uM,[1],92%
same,EC50,[2],2110 nM
N=c1c2ccccc2nnn1-c1cccc(C(F)(F)F)c1 [MMV665923],EC50,[4],134 nM
COc1ccc(C(=O)C2CC2c2ccc(Cl)cc2)cc1 (stereo not drawn) [MMV665924],percent_inh @ 5 uM,[5],94%
same,EC50,[11],1060 nM
same,EC50,[10],217 nM
O=C(CCl)NCCOc1ccc(Cl)cc1Cl [MMV665927],EC50,[4],538 nM
CCC(C)NCC(O)(c1ccc(Cl)cc1)c1ccc(Cl)cc1 (stereo not drawn) [MMV665928],percent_inh @ 5 uM,[8],98%
same,EC50,[9],642 nM
same,EC50,[10],639 nM
same,EC50,[6],843 nM
CCCCNCC(O)(c1ccc(Cl)cc1)c1ccc(Cl)cc1 [MMV665929],percent_inh @ 5 uM,[1],97%
same,EC50,[3],843 nM
same,EC50,[2],720 nM
O=C1c2ccccc2-c2nnc(-c3ccc(Br)cc3)cc21 [MMV665934],percent_inh @ 5 uM,[5],99%
same,EC50,[11],1070 nM
same,EC50,[10],2500 nM
FC(F)(F)c1ccc(Nc2nnnc3ccccc23)cc1 [MMV665935],percent_inh @ 5 uM,[1],77%
Cc1ccc(S(=O)(=O)c2c(COC(=O)c3cccc(C)c3)c(-c3ccccc3)nn2C)cc1 [MMV665936],percent_inh @ 5 uM,[5],95%
same,EC50,[10],8400 nM
O=C(Nc1ccsc1C(=O)NC1CCCCC1)c1ccc(F)cc1 [MMV665939],percent_inh @ 5 uM,[1],86%
same,EC50,[2],1210 nM
CCOc1ccc(C=Cc2nc(=O)c3ccccc3o2)cc1 [MMV665940],percent_inh @ 5 uM,[8],95%
same,EC50,[9],560 nM
same,EC50,[7],188 nM
CN(C)c1ccc(C(O)(c2ccc(N(C)C)cc2)c2ccc(N(C)C)cc2)cc1 [MMV665941],percent_inh @ 5 uM,[8],96%
same,EC50,[9],255 nM
same,EC50,[7],620 nM
Nc1ccc(-c2nc3cc(Cc4ccc5[nH]c(-c6ccc(N)cc6)nc5c4)ccc3[nH]2)cc1 [MMV665943],percent_inh @ 5 uM,[5],100%
same,EC50,[11],1420 nM
same,EC50,[10],243 nM
same,EC50,[6],512 nM
same,EC50,[7],1080 nM
COc1ccc(CN2CCN(Cc3ccccc3)CC2)c(O)c1 [MMV665944],percent_inh @ 5 uM,[5],96%
same,EC50,[11],1080 nM
same,EC50,[7],1090 nM
CC(C)=CCN1CCC(C(=O)Nc2ccc(-c3nc4ccccc4[nH]3)cc2)CC1 [MMV665946],percent_inh @ 5 uM,[1],96%
same,EC50,[3],1160 nM
O=C(Nc1ccccc1O)c1ccc(-c2ccc(Cl)cc2Cl)o1 [MMV665948],percent_inh @ 5 uM,[1],97%
same,EC50,[2],2460 nM
Oc1ccc(C(=C(Cl)Cl)c2ccc(O)cc2)cc1 [MMV665949],percent_inh @ 5 uM,[5],95%
same,EC50,[7],2470 nM
O=C(Nc1ccc(F)c(Cl)c1)Nc1ccc(Cl)c(Cl)c1 [MMV665953],percent_inh @ 5 uM,[1],95%
same,EC50,[3],2060 nM
same,EC50,[2],5410 nM
O=C(NCC1Cc2cccc(-c3ccncc3)c2O1)c1csc2c1CCCC2 (stereo not drawn) [MMV665954],percent_inh @ 5 uM,[1],87%
same,EC50,[3],1720 nM
same,EC50,[2],8740 nM
CCN(CC)CCCNc1nc(-c2ccc(Cl)cc2)nc2ccccc12 [MMV665961],percent_inh @ 5 uM,[1],92%
same,EC50,[2],15000 nM
COc1cccc(C(=O)NC(c2ccc(C)cc2)c2cc(Cl)c3cccnc3c2O)c1 (stereo not drawn) [MMV665969],percent_inh @ 5 uM,[5],97%
same,EC50,[11],393 nM
same,EC50,[7],15000 nM
CCOC(=O)C1=C(C)N=c2sc(=Cc3cc(Cl)ccc3O)c(=O)n2C1c1ccc(OC)cc1 (stereo not drawn) [MMV665971],percent_inh @ 5 uM,[5],97%
same,EC50,[11],489 nM
same,EC50,[6],746 nM
same,EC50,[7],15000 nM
O=C(Cc1ccccc1)NC(c1ccc(Cl)cc1)c1c(O)ccc2ccccc12 (stereo not drawn) [MMV665972],EC50,[4],15000 nM
CCOC(=O)c1cn(CC)c2cc(N(C)CCc3ccc(OC)c(OC)c3)c(F)cc2c1=O [MMV665977],percent_inh @ 5 uM,[8],99%
same,EC50,[9],205 nM
same,EC50,[10],103 nM
same,EC50,[6],425 nM
FC(F)(F)c1cccc(CNC2CCN(CCc3ccccc3)CC2)c1 [MMV665979],percent_inh @ 5 uM,[8],96%
same,EC50,[9],685 nM
same,EC50,[10],174 nM
OC1CCCCC1C1(NC(=S)Nc2ccccc2)CCCCC1 (stereo not drawn) [MMV665980],percent_inh @ 5 uM,[5],59%
same,EC50,[10],211 nM
CCCCCCc1cc(O)c2c3c(c(=O)oc2c1)CCC(C)C3 (stereo not drawn) [MMV665987],percent_inh @ 5 uM,[5],96%
same,EC50,[11],534 nM
same,EC50,[10],364 nM
Cc1nc2ccccc2c(O)c1CC=C(Cl)Cl [MMV665994],percent_inh @ 5 uM,[5],89%
same,EC50,[11],836 nM
same,EC50,[10],498 nM
CN1c2ccccc2N(C)C1c1ccc2c(c1)OCO2 [MMV666009],percent_inh @ 5 uM,[1],60%
same,EC50,[3],994 nM
same,EC50,[2],1120 nM
Cc1ccc(OCCCCCCNCCO)c(C)c1 [MMV666020],percent_inh @ 5 uM,[5],49%
same,EC50,[10],1970 nM
Cc1ccc(-c2cc3c(nn2)-c2ccccc2C3=O)cc1 [MMV666021],percent_inh @ 5 uM,[8],99%
same,EC50,[9],94.4 nM
same,EC50,[10],2000 nM
COc1ccc(C(=O)NC(c2ccccc2Cl)c2cc(Cl)c3cccnc3c2O)cc1 (stereo not drawn) [MMV666022],EC50,[4],2370 nM
c1ccc(Cn2c(N=Nc3c(Nc4ccccc4)ccc4ccccc34)nc3ccccc32)cc1 [MMV666023],percent_inh @ 5 uM,[8],96%
same,EC50,[9],36.8 nM
same,EC50,[10],2730 nM
OC(Cn1nnc2ccccc21)Cn1c2ccc(Br)cc2c2cc(Br)ccc21 (stereo not drawn) [MMV666025],EC50,[4],3370 nM
COc1ccc(-c2cc3c(nn2)-c2ccccc2C3=O)cc1 [MMV666026],EC50,[4],3840 nM
COc1ccc(C(=O)NC(c2ccc(Cl)cc2Cl)c2cc(Cl)c3cccnc3c2O)cc1 (stereo not drawn) [MMV666054],percent_inh @ 5 uM,[5],96%
same,EC50,[11],513 nM
same,EC50,[6],499 nM
O=C(Nc1ccc(Cl)cc1C(=O)Nc1ccncc1)c1ccc(Cl)cc1Cl [MMV666057],percent_inh @ 5 uM,[8],94%
same,EC50,[6],611 nM
COc1ccc(CN2CCCC(C(=O)c3ccc(C(F)(F)F)cc3)C2)c(O)c1 (stereo not drawn) [MMV666060],EC50,[4],849 nM
COc1cccc(O)c1CN1CCC2(CCCN(Cc3ccc(F)cc3)C2)C1 (stereo not drawn) [MMV666061],percent_inh @ 5 uM,[1],95%
same,EC50,[3],530 nM
same,EC50,[2],865 nM
Cc1ccc(N2C(=O)C3C(C2=O)C2(c4ccccc4)C(=O)C3(c3ccccc3)C(c3ccccc3)=C2c2ccccc2)cc1 (stereo not drawn) [MMV666062],percent_inh @ 5 uM,[8],98%
same,EC50,[9],282 nM
same,EC50,[6],869 nM
COc1ccc(CNC2CCN(c3ccc(NC(=O)c4cccc(Cl)c4)cc3)CC2)cc1OC [MMV666067],percent_inh @ 5 uM,[1],97%
same,EC50,[3],663 nM
same,EC50,[2],1020 nM
COc1ccc(CCN2CCC(CN(C)Cc3cnn(-c4ccccc4)c3)CC2)cc1 [MMV666069],percent_inh @ 5 uM,[1],96%
same,EC50,[3],1430 nM
same,EC50,[2],1160 nM
O=C(NC1CCCC1)c1ccc(N2CCC(NCc3cccc(C(F)(F)F)c3)CC2)cc1 [MMV666070],percent_inh @ 5 uM,[1],93%
same,EC50,[2],1330 nM
Cc1ccc(CN2CCC(C(=O)Nc3ccc(-c4cc5ccccc5[nH]4)cc3)CC2)o1 [MMV666071],percent_inh @ 5 uM,[1],77%
same,EC50,[2],1420 nM
COCCNC(=O)c1ccc(OC2CCN(Cc3ccc(F)c(F)c3)CC2)c(Cl)c1 [MMV666072],percent_inh @ 5 uM,[8],91%
same,EC50,[6],1490 nM
